# pIC50: −log10 of the molar value.
# Experiments:
# Solubility in solvents = type: physicochemical
# [1] = tested on: MCF7 (ER-positive BC) cells; experiment: MTT cell viability assay, MCF7; type: cell-based, human
# From the text: (§1) For in vitro assays, three tumor cell lines were used: MCF7 (ER-positive BC), maintained in Roswell Park Memorial Institute medium (RPMI-1640, Gibco®, Grand Island, NY, USA); MDA-MB-453 (HER2-positive BC), grown in Iscove’s Modified Dulbecco’s Medium (IMDM, Gibco®); and MDA-MB-231 (TNBC), grown in Leibovitz’s L-15 Medium (L15, Gibco®). Additionally, three non-tumor cell lines were used: HUVEC (human umbilical vein endothelial cells), cultured in (RPMI-1640); HFF (human fibroblast), cultured in Dulbecco’s Modified Eagle Medium: Nutrient Mixture—High Glucose (DMEM/F12-High Glucose, Gibco®); and MCF10A (human mammary epithelial cell line), also cultured in DMEM/F12 supplemented with 10 μg/mL of insulin (Gibco®), 0.25 μg/mL of hydrocortisone (Sigma-Aldrich®, Saint Louis, MO, USA), and […] of Epidermal Growth Factor (EGF) (Gibco®). All culture media were supplemented with 10% fetal bovine serum (FBS) (Gibco®) and 50 μg/mL of gentamicin (Cultilab®, Campinas, SP, Brazil). The culture flasks were kept in an incubator at 37 °C under an atmosphere of 5% CO2, except for the MDA-MB 231 lineage, which was grown without CO2 gas exchange. All cells were purchased from the American Type Culture Collection (ATCC, Manassas, VA, USA).
# (§2) To analyze cell viability, the test based on the reduction of tetrazolium 3-(4,5-dimethylthiazol-2yl)-2,5-diphenyl bromide (MTT) was used. HUVEC cell lines (1.0 × 10^4 cells/well); HFF (8.0 × 10^3 cells/well); MCF10A (1.2 × 10^4 cells/well); MDA-MB-453 and MCF7 (5.0 × 10^3 cells/well) and MDA-MB-231 (1.5 × 10^4 cells/well) were seeded in 96-well plates in complete culture medium. […] All assays were performed in triplicate. Wells containing only cells and medium (untreated cells) and wells containing cells treated with DMSO diluent were used as experimental controls (considered as 100% cell viability). After incubation, MTT (5 mg/mL-diluted in phosphate-buffered saline—PBS) was added along with complete culture medium at 10% v/v and maintained for 4 h. Then, 200 μL of DMSO was added to each well and the reading was carried out at 560 nm using the Multiskan FC Microplate Photometer reader (Thermo Fisher Scientific®, Waltham, MA, USA).
# (§3) The data obtained were analyzed using GraphPad Prism 8.0 software. Three independent triplicate assays were conducted and means and standard deviations were calculated. Normality was assessed using the Shapiro–Wilk test and Student’s t-test and one-way ANOVA, followed by Tukey’s post-test, were applied to compare treatments. Differences were considered significant when p < 0.05. The IC50 values were calculated by non-linear regression and the selectivity index (SI) for MDA-MB-231 cells was established by the ratio between the IC50 of each non-tumor cell line and the IC50 of MDA-MB-231. SI values ≥ 2 were considered significant.
# [2] = tested on: MDA-MB-453 (HER2-positive BC) cells; experiment: MTT cell viability assay, MDA-MB-453; type: cell-based, human
# Experimental: All culture media were supplemented with 10% fetal bovine serum (FBS) (Gibco®) and 50 μg/mL of gentamicin (Cultilab®, Campinas, SP, Brazil). […] All cells were purchased from the American Type Culture Collection (ATCC, Manassas, VA, USA).
# as §2, with “used.” for “used. HUVEC cell lines (1.0 × 10^4 cells/well); HFF (8.0 × 10^3 cells/well); MCF10A (1.2 × 10^4 cells/well); MDA-MB-453 and MCF7 (5.0 × 10^3 cells/well) and MDA-MB-231 (1.5 × 10^4 cells/well) were seeded in 96-well plates in complete culture medium.”
# as §3, with “The IC50 values were calculated by non-linear regression and the selectivity index (SI) for MDA-MB-231 cells was established by the ratio between the IC50 of each non-tumor cell line and the IC50 of MDA-MB-231.” left out
# MDA-MB-231 (TNBC) cells = experiment: MTT cell viability assay, MDA-MB-231; type: cell-based, human
# From the text: as §1, §2, §3
# [3] = tested on: HUVEC (human umbilical vein endothelial cells); experiment: MTT cell viability assay, HUVEC; type: cell-based
# Experimental: (§4) For in vitro assays, three tumor cell lines were used: MCF7 (ER-positive BC), maintained in Roswell Park Memorial Institute medium (RPMI-1640, Gibco®, Grand Island, NY, USA); MDA-MB-453 (HER2-positive BC), grown in Iscove’s Modified Dulbecco’s Medium (IMDM, Gibco®); and MDA-MB-231 (TNBC), grown in Leibovitz’s L-15 Medium (L15, Gibco®). […]
# (§5) To analyze cell viability, the test based on the reduction of tetrazolium 3-(4,5-dimethylthiazol-2yl)-2,5-diphenyl bromide (MTT) was used. […] Then, 200 μL of DMSO was added to each well and the reading was carried out at 560 nm using the Multiskan FC Microplate Photometer reader (Thermo Fisher Scientific®, Waltham, MA, USA).
# as §3, with “Differences were considered significant when p < 0.05.” left out, “SI values ≥ 2 were considered significant.” left out
# HFF (human fibroblast) = experiment: MTT cell viability assay, HFF; type: cell-based
# Experimental: as §4, §5
# as §3, with “Differences were considered significant when p < 0.05.” left out, “SI values ≥ 2 were considered significant.” left out
# [4] = tested on: MCF10A (human mammary epithelial cell line); experiment: MTT cell viability assay, MCF10A; type: cell-based; design: key to SI (Non-Tumor/MDA-MB231) MCF10A: NS: nonselective; HS: highly selective
# From the text: as §1, §5
# as §3, with “Differences were considered significant when p < 0.05.” left out, “SI values ≥ 2 were considered significant.” left out
SMILES,"pIC50 ([1]; Homo sapiens, MCF7, 48 h)","pIC50 ([2]; Homo sapiens, MDA-MB-453, 48 h)","pIC50 (MDA-MB-231 (TNBC) cells; Homo sapiens, MDA-MB-231, 48 h)",pIC50 ([1]; 48 h),pIC50 ([2]; 48 h),pIC50 (MDA-MB-231 (TNBC) cells; 48 h),solubility in MeOH (Solubility in solvents),"cytotoxicity in words, MCF7 ([1]; 48 h)","cytotoxicity in words, MDA-MB-453 ([2]; 48 h)","cytotoxicity in words, MDA-MB-231 (MDA-MB-231 (TNBC) cells; 48 h)","concentration from which cell viability decreased, MCF7 ([1]; 48 h)",further results
"CC(=NN=C([O][Zn+])c1ccco1)c1ccccn1.CC(=NNC(N)=O)c1ccccn1.[Cl-] [Complex 4, [Zn(Hz)(Hsc)]Cl]",–,–,–,–,–,–,pretty soluble,–,–,–,–,–
"CC(=NNC(N)=O)c1ccccn1.CCNC(=NN=C(C)c1ccccn1)[S][Zn+].[Cl-] [Complex 3, [Zn(atc–Et)(Hsc)]Cl]",–,–,–,–,–,–,pretty soluble,–,–,–,–,–
"CCNC(=NN=C(C)c1ccccn1)[S][Zn][O]C(=NN=C(C)c1ccccn1)c1ccco1 [Complex 1, [Zn(Hz)(atc–Et)]]",–,–,–,5.03,6.49,6.62,–,proliferated after treatment with the lowest concentrations,cytotoxic,cytotoxic,≥ 0.25 µM,"pIC50 ([3]; 48 h, MTT, non-tumor cell line): 5.60; SI (Non-Tumor/MDA-MB231) HUVEC ([3]; IC50 in HUVEC divided by IC50 of MDA-MB-231): 10.50; pIC50 (HFF (human fibroblast); 48 h, MTT, non-tumor cell line): 5.34; SI (Non-Tumor/MDA-MB231) HFF (HFF (human fibroblast); IC50 in HFF divided by IC50 of MDA-MB-231): 19.04; sensitivity in words, MCF10A ([4]; 48 h, MTT, compared with HUVEC and HFF): most sensitive; pIC50 ([4]; 48 h, MTT, non-tumor cell line): > 8.00; SI (Non-Tumor/MDA-MB231) MCF10A ([4]; IC50 in MCF10A divided by IC50 of MDA-MB-231): NS"

# Continued, in another order:
"pIC50 ([1]; Homo sapiens, MCF7, 48 h)","pIC50 ([2]; Homo sapiens, MDA-MB-453, 48 h)","pIC50 (MDA-MB-231 (TNBC) cells; Homo sapiens, MDA-MB-231, 48 h)",pIC50 ([1]; 48 h),pIC50 ([2]; 48 h),pIC50 (MDA-MB-231 (TNBC) cells; 48 h),SMILES,solubility in MeOH (Solubility in solvents),"cytotoxicity in words, MCF7 ([1]; 48 h)","cytotoxicity in words, MDA-MB-453 ([2]; 48 h)","cytotoxicity in words, MDA-MB-231 (MDA-MB-231 (TNBC) cells; 48 h)","concentration from which cell viability decreased, MCF7 ([1]; 48 h)",further results
< 3.81,> 8.00,6.57,–,–,–,"CCNC(=S)N/N=C(\C)c1ccccn1 [Hatc-Et, 2-Acetylpyridine-4-ethyl-3-thiosemicarbazone]",–,most resistant,most sensitive,most sensitive,–,–
< 3.81,5.39,4.52,–,–,–,"CC(=NNC(=O)c1ccco1)c1ccccn1 [Hhz, 2-Acetylpyridine-furanoylhidrazone]",–,–,–,–,≥ 6.25 µM,"concentration from which cell viability decreased, MDA-MB-453 ([2]; 48 h): ≥ 6.25 µM; concentration from which cytotoxicity was observed, MDA-MB-231 (MDA-MB-231 (TNBC) cells; 48 h): ≥ 1250 nM"
–,–,–,< 3.81,> 8.00,< 3.81,"[Cl-].[Cl-].[Zn+2] [ZnCl2, zinc chloride]",–,–,–,–,–,–

# Reference: article PMC11676115, “A New Heteroleptic Zn(II) Complex with Schiff Bases Sensitizes Triple-Negative Breast Cancer Cells to Doxorubicin and Paclitaxel” (Pharmaceutics, 2024)
